Where two headings read alike, the source gives them in different places.
Molecular target: T1, HIV-1 protease (Human immunodeficiency virus type 1 group M subtype B, UniProt P04585)
T1 construct: made in house; host or cells: E. coli K12 L507/pHP10D (NRRL B-18560)
Experiment: biochemical
Details: for inhibition at 1 µg/mL: at 1000 ng/ml, read-out: Fluorescence Assay, given as ICxx (1000): xx is the percent inhibition
Protocol: A culture of E. coli K12 L507/pHP10D was grown to mid-log phase at 32° C. in LB media containing 12.5 μg/ml tetracycline. The cultivation temperature was quickly elevated to 40° C. to induce gene expression, and the cells were allowed to grow for 2.5 hours at this temperature before the culture was quickly chilled on ice. The cells were centrifuged and the cell pellet was resuspended in 20 mL 50 mmol MES buffer (pH 6.0) containing 1 mmol EDTA, 1 mmol DTT, 1 mmol PMSF and 10% glycerol ("Buffer A"). Cells were lysed by sonication using a Fischer Model 300 Dismembrator and a microtip probe. Following centrifugation at 27,000 x g, the supernatant was diluted to a total volume of 60 mL with Buffer A and loaded onto a 2.0×19 cm QAE-Sepharose column (1 mL/min, 4° C.), that had been equilibrated in Buffer A. The column was washed isocratically for 180 min and then eluted with a gradient eluent of 0-1.0M NaCl in Buffer A over 120 min. Enzymatic activity was measured by HPLC using the synthetic peptide SQNYPIV as described in Margolin et al., Biochem. Biophys. Res. Commun., […], 554-560 (1990); the production of the p1 peptide (SQNY) was measured.
N^a -Biotin-[…]N^e -FITC)-OH SEQ ID NO: 1
The following buffers and solutions are used in the Fluorescence HIV-1 Protease Inhibitor Assay:
To each well of a round bottom, 96-well plate is added 20 μL of the Enzyme Solution followed by 10 μL of the compound to be evaluated in a 20% aqueous dimethylsulfoxide solution. Purified HIV-1 protease was obtained as described above. The resulting solution is incubated for one hour at room temperature and then 20 μL of a solution containing the substrate, N^a -Biotin-[…]N^e-FITC)-OH, in MES-ALB buffer ([…]) is added to each well. The solutions are then incubated for 16 hours at room temperature and then each well is diluted with 150 μL of MES-ALB buffer.
To each well of a second round bottom, 96-well Pandex plate is added 25 uL of the Avidin Coated Beads Solution. Then, to each well is added 25 μL of the diluted incubation solutions, prepared above. The solutions are mixed thoroughly and the plates are loaded into a Pandex® machine, washed, evacuated and read. Sample detection was performed by excitation at 485 nm, reading the resulting epifluorescence at 535 nm.

[1] = read-out: Fluorescence Assay IC50 (converted)

Row | Structure (SMILES) | IC50 [1] [nM] | inhibition at 1 µg/mL [%] | further results
1 | C[C@H](NC(=O)OCc1ccccc1)C(=O)N[C@@H](Cc1ccccc1)[C@@H]1O[C@@H]1[C@H](Cc1ccccc1)NC(=O)[C@H](C)NC(=O)OCc1ccccc1 [Example 20, 1,6-Diphenyl-2(S),5(S)-di[N-[2(S)-N(benzyloxycarbonyl)amino]propanoyl]amino-3,4-cis-epoxyhexane] | 803 | – | –
2 | CCC[C@H](NC(=O)N(C)Cc1ccc2ccccc2n1)C(=O)N[C@@H](Cc1ccccc1)[C@@H]1O[C@@H]1[C@H](Cc1ccccc1)NC(=O)[C@H](CCC)NC(=O)N(C)Cc1ccc2ccccc2n1 [Example 21, 1,6-Diphenyl-2(S),5(S)-di[N-[2(S)-N[[N(methyl)-N(quinolin-2-ylmethyl)amino]carbonyl]aminopentanoyl]amino]-3,4-cis epoxyhexane] | 66.1 | – | –
3 | CCCC[C@H](NC(=O)N(C)Cc1ccc2ccccc2n1)C(=O)N[C@@H](Cc1ccccc1)[C@@H]1O[C@@H]1[C@H](Cc1ccccc1)NC(=O)[C@H](CCCC)NC(=O)N(C)Cc1ccc2ccccc2n1 [Example 22, 1,6-Diphenyl-2(S),5(S)-di[N-[2(S)-N[[N(methyl)-N(quinolin-2-ylmethyl)amino]carbonyl]aminohexanoyl]amino]-3,4-cis-epoxyhexane] | 437 | – | –
4 | CC(C)(C)C(NC(=O)OCc1cccnc1)C(=O)NC(Cc1ccccc1)C1OC1C(Cc1ccccc1)NC(=O)C(NC(=O)OCc1cccnc1)C(C)(C)C [Example 23, 1,6-Diphenyl-2(S),5(S)-di[N-[2(S)-N(pyrid-3-ylmethoxycarbonyl)amino-3,3-dimethylbutanoyl]amino]-3,4-cis-epoxyhexane] | – | – | Fluorescence Assay IC50 (16 h incubation at room temperature, MES-ALB buffer pH 5.5, normalized to a positive control): 0.497 µg/mL
5 | CC[C@H](C)[C@H](NC(=O)N(C)Cc1ccccn1)C(=O)N[C@@H](Cc1ccccc1)[C@@H]1O[C@@H]1[C@H](Cc1ccccc1)NC(=O)[C@@H](NC(=O)N(C)Cc1ccccn1)[C@@H](C)CC [Example 24, 1,6-Diphenyl-2(S),5(S)-di[N-[2(S)-N[[N(methyl)-N(pyrid-2-ylmethyl)amino]carbonyl]amino-3(S)-methylpentanoyl]amino]-3,4-cis-epoxyhexane] | – | – | IC50 (16 h incubation at room temperature, MES-ALB buffer pH 5.5, normalized to a positive control, read-out: Fluorescence Assay IC50 (converted)): 163 nM
6 | CC(C)[C@H](NC(=O)c1ccc2ccccc2n1)C(=O)N[C@@H](Cc1ccccc1)[C@@H]1O[C@@H]1[C@H](Cc1ccccc1)NC(=O)[C@@H](NC(=O)c1ccc2ccccc2n1)C(C)C [Example 26, 1,6-Diphenyl-2(S),5(S)-di[N-[2(S)-N(quinolin-2-ylcarbonyl)amino-3-methylbutanoyl]amino]-3,4-cis-epoxyhexane] | – | 23 | –
7 | CN(Cc1ccc2ccccc2n1)C(=O)N[C@@H](CC#N)C(=O)N[C@@H](Cc1ccccc1)[C@@H]1O[C@@H]1[C@H](Cc1ccccc1)NC(=O)[C@H](CC#N)NC(=O)N(C)Cc1ccc2ccccc2n1 [Example 27, 1,6-Diphenyl-2(S),5(S)-di [N-[2(S)-N[[N(methyl)-N(quinolin-2-ylmethyl)amino]carbonyl]amino-3-cyanopropanoyl]amino]-3,4-cis-epoxyhexane] | 30.7 | – | –
8 | Cc1cccc(COC(=O)N[C@H](C(=O)N[C@@H](Cc2ccccc2)[C@@H]2O[C@@H]2[C@H](Cc2ccccc2)NC(=O)[C@@H](NC(=O)OCc2cccc(C)n2)C(C)C)C(C)C)n1 [Example 29, 1,6-Diphenyl-2(S),5(S)-di[N-[2(S)-N(6-methylpyrid-2-ylmethoxycarbonyl)amino-3-methylbutanoyl]amino]-3,4-cis-epoxyhexane] | 39.2 | – | –
9 | CC(C)(C)[C@H](NC(=O)OCc1ccc2ccccc2n1)C(=O)N[C@@H](Cc1ccccc1)[C@@H]1O[C@@H]1[C@H](Cc1ccccc1)NC(=O)[C@@H](NC(=O)OCc1ccc2ccccc2n1)C(C)(C)C [Example 30] | 382 | – | –
10 | CC[C@H](C)[C@H](NC(=O)NCc1ccccn1)C(=O)N[C@@H](Cc1ccccc1)[C@@H]1O[C@@H]1[C@H](Cc1ccccc1)NC(=O)[C@@H](NC(=O)NCc1ccccn1)[C@@H](C)CC [Example 31] | 32.4 | – | –
11 | CC[C@H](NC(=O)N(C)Cc1ccc2ccccc2n1)C(=O)N[C@@H](Cc1ccc2ccccc2c1)[C@@H]1O[C@@H]1[C@H](Cc1ccc2ccccc2c1)NC(=O)[C@H](CC)NC(=O)N(C)Cc1ccc2ccccc2n1 [Example 32] | – | – | IC50 (read-out: Fluorescence Assay average IC50 (marked *) (converted)): 181 nM
12 | CC[C@H](C)[C@H](NC(=O)N(C)Cc1ccccn1)C(=O)N[C@@H](Cc1ccc2ccccc2c1)[C@@H]1O[C@@H]1[C@H](Cc1ccc2ccccc2c1)NC(=O)[C@@H](NC(=O)N(C)Cc1ccccn1)[C@@H](C)CC [Example 33, 1,6-Dinaphth-2-yl-2(S),5(S)-di[N-[2(S)-N-[[N(methyl)-N(pyrid-2-ylmethyl)amino]carbonyl]amino-3(S)-methylpentanoyl]amino]-3,4-cis-epoxyhexane] | – | 25 | –
13 | CCC(NC(=O)N(C)Cc1ccccn1)C(=O)NC(CSc1ccc2ccccc2c1)C1OC1C(CSc1ccc2ccccc2c1)NC(=O)C(CC)NC(=O)N(C)Cc1ccccn1 [Example 35, 1,6-Dinaphth-2-ylthio-2(S),5(S)-di[N-[2(S)-N-[[N(methyl)-N (pyrid-2-ylmethyl)amino]carbonyl]aminobutanoyl]amino]-3,4-cis-epoxyhexane] | – | 23 | –
14 | CC(C)[C@H](NC(=O)OCc1ccccn1)C(=O)N[C@@H](CCc1ccccc1)[C@@H]1O[C@@H]1[C@H](CCc1ccccc1)NC(=O)[C@@H](NC(=O)OCc1ccccn1)C(C)C [Example 36] | – | 26 | –

Now from value to molecule, other results behind:

Row | IC50 [1] [nM] | inhibition at 1 µg/mL [%] | Structure (SMILES) | further results
15 | – | 40 | CCCC[C@H](NC(=O)OCc1ccccn1)C(=O)N[C@@H](Cc1ccccc1)[C@@H]1O[C@@H]1[C@H](Cc1ccccc1)NC(=O)[C@H](CCCC)NC(=O)OCc1ccccn1 [Example 25, 1,6-Diphenyl-2(S),5(S)-di[N-[2(S)-N(pyrid-2-ylmethoxycarbonyl)amino]hexanoyl]amino-3,4-cis-epoxyhexane] | –
16 | 1090 | – | CC[C@H](NC(=O)N(C)Cc1ccccn1)C(=O)N[C@@H](Cc1ccccc1)[C@@H]1O[C@@H]1[C@H](Cc1ccccc1)NC(=O)[C@H](CC)NC(=O)N(C)Cc1ccccn1 [Example 28, 1,6-Diphenyl-2(S),5(S)-di[N-[2(S)-N[[N(methyl)-N(pyrid-2-ylmethyl)amino]carbonyl]aminobutanoyl]amino]-3,4-cis-epoxyhexane] | –
17 | – | 34 | CC[C@H](NC(=O)N(C)Cc1ccccn1)C(=O)N[C@@H](Cc1ccc2ccccc2c1)[C@@H]1O[C@@H]1[C@H](Cc1ccc2ccccc2c1)NC(=O)[C@H](CC)NC(=O)N(C)Cc1ccccn1 [Example 34, 1,6-Dinaphth-2-yl-2(S),5(S)-di[N-[2(S)-N-[[N(methyl)-N (pyrid-2-ylmethyl)amino]carbonyl]aminobutanoyl]amino]-3,4-cis-epoxyhexane] | –
18 | 206 | – | CC[C@H](NC(=O)N(C)Cc1ccccn1)C(=O)N[C@@H](CCCc1ccccc1)[C@@H]1O[C@@H]1[C@H](CCCc1ccccc1)NC(=O)[C@H](CC)NC(=O)N(C)Cc1ccccn1 [Example 37, 1,10-Diphenyl-4(S),7(S)-di[N-[2(S)-N-[[N(methyl)-N(pyrid-2-ylmethyl)amino]carbonyl]aminobutanoyl]amino]-5,6-cis-epoxydecane] | –
19 | 23.8 | – | CC[C@H](NC(=O)N(C)Cc1ccc2ccccc2n1)C(=O)N[C@@H](CCCc1ccccc1)[C@@H]1O[C@@H]1[C@H](CCCc1ccccc1)NC(=O)[C@H](CC)NC(=O)N(C)Cc1ccc2ccccc2n1 [Example 38, 1,10-Diphenyl-4(S),7(S)-di[N-[2(S)-N-[[N(methyl)-N(quinolin-2-ylmethyl)amino]carbonyl]aminobutanoyl]amino]-5,6-cis-epoxydecane] | –

From patent US5578608A, “Symmetrical diaryl and diheteroanyl cis epoxy alkanes antiviral compounds” (Eli Lilly and Company, priority 1995, dated 1996)
